Data from US20260125374A1, “PI3K-ALPHA INHIBITORS AND METHODS OF MAKING AND USING THE SAME” (Relay Therapeutics, Inc., priority 2021, published 2026).
Converted amounts (≈) assume the structure as drawn.

Columns and labels:
Type in all cases: physicochemical
[1] = Grinding simulation experiments
Description: About 50 mg of I-1 Form A was ground manually with a mortar and pestle for 1, 3 and 5 min. Form transformation and degree of crystallinity was evaluated by XRPD.
About 50 mg of Form A was ground manually with a mortar and pestle for 1, 3 and 5 min. Form transformation and degree of crystallinity was evaluated by XRPD.

[2] = Granulation simulation experiments
Description: (§1) Ethanol (without pretreatment by molecular sieve) and pure water were added drop wise to about 20 mg of I-1 Form A separately until solid is wetted sufficiently. Manually grind the samples with a mortar and pestle for about 5 min. Samples were dried under ambient condition for 10 min. Form transformation and degree of crystallinity were evaluated by XRPD.
as §1, with “of” for “of I-1”

[3] = Stability of I-1 solution during concentration (pH, temperature; chiral purity); settings: for Purity / ee %: 1N HCl; for ee %: start ee 98.43%
[4] = Light impact on chiral purity
Description: Four reactions were carried out to study the impact of light on chiral purity under neutral and basic condition.

[5] = Behavior under compression
Description: About 20 mg of I-1 Form A was compressed for 5 minutes at 2 MPa, 5 MPa and 10 MPa with a hydraulic press. XRPD characterization was performed to investigate the polymorphic behavior under compression.
About 20 mg of Form A was compressed for 5 minutes at 2 MPa, 5 MPa and 10 MPa with a hydraulic press. XRPD characterization was performed to investigate the polymorphic behavior under compression.

[6] = Approximate solubility at 25° C. (visual observation)
Description: Max. volume of each solvent added was 1 mL. Approximate solubility was determined by visual observation.

[7] = 10-20° C. MeOH, pH 4, stir for 4 h

## N#Cc1c(-c2cc(NC(=O)c3cc(F)cc(C(F)(F)F)c3)c3c(c2)C(=O)N[C@H]3c2cc(F)ccc2Cl)ccc2ncnn12 [Compound I-1, (R)-N-(3-(2-chloro-5-fluorophenyl)-6-(5-cyano-[1,2,4]triazolo[1,5-a]pyridin-6-yl)-1-oxoisoindolin-4-yl)-3-fluoro-5-(trifluoromethyl)benzamide]
[1]
  XRPD peak intensity after dry grinding: slightly decreased
[1]; Dry grinding for 1 min
  XRPD: No form and crystallinity change,
[1]; mortar and pestle 1, 3 and 5 min
  form change on grinding (XRPD): no form change
[2]; ethanol and water
  form change on granulation simulation (XRPD): no form change
[2]; granulation simulation with Ethanol
  XRPD: No form and crystallinity change
[2]; granulation simulation with water
  XRPD: No form and crystallinity change
[3]; [7]
  Purity: 99.53%
  ee %: 98.33%
[3]; 10˜20° C. within 68 h
  stability in solution: stable
[3]; 40-50° C. MeOH, pH 4, stir for 4 h
  ee %: 98.38%
[3]; 40-50° C. MeOH, pH 4, stir for 68 h
  Purity: 99.29%
[4]; Avoid light, basic (KOAc), 1 h
  ee %: 97.91%
[4]; Avoid light, basic (KOAc), 6 h
  ee %: 94.79%
[4]; Avoid light, basic (KOAc), 24 h
  ee %: 80.92%
[4]; Avoid light, basic (KOAc), 96 h
  ee %: 43.30%
[4]; Avoid light, neutral, 0 h
  ee %: 98.96%
[4]; Avoid light, neutral, 6 h
  ee %: 98.94%
[4]; Avoid light, neutral, 24 h
  ee %: 98.96%
[4]; Avoid light, neutral, 96 h
  ee %: 98.92%
[4]; Under light, basic (KOAc), 6 h
  ee %: 94.35%
[4]; Under light, basic (KOAc), 24 h
  ee %: 76.17%
[4]; Under light, basic (KOAc), 96 h
  ee %: 30.84%
[4]; Under light, neutral, 6 h
  ee %: 98.87%
[4]; Under light, neutral, 24 h
  ee %: 97.15%
[4]; Under light, neutral, 96 h
  ee %: 81.68%
[4]; base system, avoid-light condition
  ee % of product after stirring for 96 h: 43.30%
[4]; base system, under-light condition
  ee % of product after stirring for 96 h: 30.84%
[4]; neutral system, avoid-light condition
  ee % of product after stirring for 96 h: almost unchanged
[4]; neutral system, under-light condition
  ee % of product after stirring for 96 h: 81.68%
[5]
  XRPD peaks after compression: slightly broader
[5]; 5 minutes at 2, 5 and 10 MPa
  form change under compression (XRPD): no form change
[5]; compressed for 5 minutes at 2 Mpa
  XRPD: No form change, but peaks became slightly broader
[5]; compressed for 5 minutes at 5 Mpa
  XRPD: No form change, but peaks became slightly broader
[5]; compressed for 5 minutes at 10 Mpa
  XRPD: No form change, but peaks became slightly broader
[6]; 1,4-dioxane, organic solvent or mixture, thermodynamic from solid, 1,4-Dioxane, polymorph screening batch
  Solubility: 29 to 33 mg/mL (≈ 47.6 to 54.2 mM)
[6]; 2-MeTHF, organic solvent or mixture, thermodynamic from solid, polymorph screening batch
  Solubility: 5 to 6 mg/mL (≈ 8.21 to 9.85 mM)
[6]; acetone, organic solvent or mixture, thermodynamic from solid, polymorph screening batch
  Solubility: 43 to 52 mg/mL (≈ 70.6 to 85.4 mM)
[6]; acetone, organic solvent or mixture, thermodynamic from solid, starting material for salt screening
  Solubility: 12 to 17 mg/mL
[6]; acetonitrile, organic solvent or mixture, thermodynamic from solid, polymorph screening batch
  Solubility: 10 to 11 mg/mL (≈ 16.4 to 18.1 mM)
[6]; acetonitrile, organic solvent or mixture, thermodynamic from solid, starting material for salt screening
  Solubility: 10 to 17 mg/mL
[6]; anisole, organic solvent or mixture, thermodynamic from solid, polymorph screening batch
  Solubility: < 5 mg/mL
[6]; benzyl alcohol, organic solvent or mixture, thermodynamic from solid, polymorph screening batch
  Solubility: 16 to 18 mg/mL (≈ 26.3 to 29.6 mM)
[6]; chloroform, organic solvent or mixture, thermodynamic from solid, polymorph screening batch
  Solubility: < 5 mg/mL
[6]; dichloromethane, organic solvent or mixture, thermodynamic from solid, polymorph screening batch
  Solubility: < 5 mg/mL
[6]; dichloromethane, organic solvent or mixture, thermodynamic from solid, starting material for salt screening
  Solubility: < 5 mg/mL
[6]; ethanol, organic solvent or mixture, thermodynamic from solid, polymorph screening batch
  Solubility: 6 to 7 mg/mL (≈ 9.85 to 11.5 mM)
[6]; ethanol, organic solvent or mixture, thermodynamic from solid, starting material for salt screening
  Solubility: < 5 mg/mL
[6]; ethyl acetate, organic solvent or mixture, thermodynamic from solid, polymorph screening batch
  Solubility: 6 to 7 mg/mL (≈ 9.85 to 11.5 mM)
[6]; heptane, organic solvent or mixture, thermodynamic from solid, polymorph screening batch
  Solubility: < 5 mg/mL
[6]; isopropanol, organic solvent or mixture, thermodynamic from solid, polymorph screening batch
  Solubility: < 5 mg/mL
[6]; isopropanol, organic solvent or mixture, thermodynamic from solid, starting material for salt screening
  Solubility: < 5 mg/mL
[6]; isopropyl acetate, organic solvent or mixture, thermodynamic from solid, polymorph screening batch
  Solubility: < 5 mg/mL
[6]; isopropyl acetate, organic solvent or mixture, thermodynamic from solid, starting material for salt screening
  Solubility: < 5 mg/mL
[6]; methanol, organic solvent or mixture, thermodynamic from solid, polymorph screening batch
  Solubility: 15 to 17 mg/mL (≈ 24.6 to 27.9 mM)
[6]; methanol, organic solvent or mixture, thermodynamic from solid, starting material for salt screening
  Solubility: 12 to 17 mg/mL
[6]; methyl ethyl ketone, organic solvent or mixture, thermodynamic from solid, polymorph screening batch
  Solubility: 26 to 28 mg/mL (≈ 42.7 to 46 mM)
[6]; methyl ethyl ketone, organic solvent or mixture, thermodynamic from solid, starting material for salt screening
  Solubility: 12 to 17 mg/mL
[6]; nitromethane, organic solvent or mixture, thermodynamic from solid, Nitromethane (NM), polymorph screening batch
  Solubility: 7 to 8 mg/mL (≈ 11.5 to 13.1 mM)
[6]; t-butyl methyl ether, organic solvent or mixture, thermodynamic from solid, polymorph screening batch
  Solubility: < 5 mg/mL
[6]; tetrahydrofuran, organic solvent or mixture, thermodynamic from solid, polymorph screening batch
  Solubility: 52 to 65 mg/mL (≈ 85.4 to 107 mM)
[6]; tetrahydrofuran, organic solvent or mixture, thermodynamic from solid, starting material for salt screening
  Solubility: 33 to 64 mg/mL
[6]; toluene, organic solvent or mixture, thermodynamic from solid, polymorph screening batch
  Solubility: < 5 mg/mL
[6]; trifluoroethanol, organic solvent or mixture, thermodynamic from solid, starting material for salt screening
  Solubility: 12 to 17 mg/mL
[6]; water, thermodynamic from solid, polymorph screening batch
  Solubility: < 5 mg/mL
[6]; water, thermodynamic from solid, starting material for salt screening
  Solubility: < 5 mg/mL
